# According to patent US4156009A, “Diazepine derivatives” (Hexachimie, priority 1977, dated 1979):
# How the values were obtained:
# [1] = tested on: ulcers caused by phenylbutazone; assay: Protective activity as regards ulcers caused by phenylbutazone; type: in vivo, rat (male, OFA strain); details: for Ulceration Index: maximum index 300
# Procedure: Male rats, of the OFA strain, weighing 160-180 g are placed on a diet of water 24 hours before the oral administration of the product studied (1 cm^3 /100 g). 30 minutes later, the rats receive 150 mg/kg phenylbutazone (1 cm^3 /100 g) orally.
# The stomachs are removed 6 hours after the last treatment. Each stomach is classified according to the following scale:
# The average of the results for a batch, multiplied by the percentage of rats having ulcers in this batch, gives an ulceration index whose maximum is 300.
# The following Table I gives the ulceration indices and the protective dose 50 (PD50) which corresponds to the index 150.
# [2] = tested on: Shay ulcers; assay: Activity on Shay ulcers (pylorus ligation); type: in vivo, rat (male, OFA strain); details: 2 hours after binding; for Pepsin / pH / Volume / Acidity free / Acidity total: gastric liquid; for Acidity free / Acidity total: potentiometry; for Ulcers: number in the rumen; for Acidity free ds the secretion / Acidity total ds the secretion / Pepsin ds the secretion: whole secretion
# Procedure: Male rats of the OFA strain, weighing 190-210 g, receive a solution of 20% glucose and […] sodium chloride as their only food for 3 days.
# Under an ether anaesthetic, the pylorus is tied, while taking care not to include blood vessels in the binding. The tested product is administered intraperitoneally and the stomach is removed 2 hours after the binding. The gastric liquid is collected and the following parameters are measured:
# free acidity (potentiometry)
# total acidity (potentiometry)
# peptic activity (hydrolysis of albumen of oxen and measurement of the tyrosine liberated).
# The number of ulcers in the rumen are counted.
# [3] = Acute toxicity; set-up: species or system rat; details: in vivo
# [4] = 8 mg/kg intraperitoneally, p < 0.05
# [5] = 16 mg/kg intraperitoneally, p < 0.01
# [6] = 32 mg/kg intraperitoneally, p < 0.001
# [7] = 32 mg/kg intraperitoneally, p < 0.01
structure (smiles),measurement,setting,value
"CN1C(=O)CN=C(c2ccccc2)c2c(C3CC3)csc21 [Example 6, 6-Cyclopropyl-1,3-dihydro-1-methyl-5-phenyl-2-oxo-2H-thieno[2,3-e]diazepine]",Ulceration Index,[1]; 16 mg/kg orally,240
same,Ulceration Index,[1]; 32 mg/kg orally,179
same,Ulceration Index,[1]; 64 mg/kg orally,62
same,Ulceration Index,[1]; 128 mg/kg orally,29
same,ED50,"[1]; Rattus norvegicus, po, orally, corresponds to ulceration index 150, read-out: PD50 (protective dose 50)",39 mg/kg
same,Pepsin,"[2]; 8 mg/kg intraperitoneally, ns",0.67 mg/mL
same,pH,"[2]; 8 mg/kg intraperitoneally, ns",1.19
same,Volume,[2]; [4],4.0 cm^3
same,Acidity free,"[2]; 8 mg/kg intraperitoneally, ns",91 mEq/l
same,Acidity total,"[2]; 8 mg/kg intraperitoneally, ns",109 mEq/l
same,Pepsin,"[2]; 16 mg/kg intraperitoneally, ns",0.67 mg/mL
same,pH,"[2]; 16 mg/kg intraperitoneally, ns",1.21
same,Volume,[2]; [5],2.7 cm^3
same,Acidity free,"[2]; 16 mg/kg intraperitoneally, ns",82 mEq/l
same,Acidity total,"[2]; 16 mg/kg intraperitoneally, ns",102 mEq/l
same,Pepsin,"[2]; 32 mg/kg intraperitoneally, ns",0.64 mg/mL
same,Volume,[2]; [6],1.7 cm^3
same,pH,"[2]; 32 mg/kg intraperitoneally, p < 0.05",1.67
same,Acidity free,[2]; [7],56.5 mEq/l
same,Acidity total,[2]; [7],80 mEq/l
same,Ulcers,[2]; 8 mg/kg intraperitoneally,0
same,Ulcers,[2]; 16 mg/kg intraperitoneally,0
same,Ulcers,[2]; 32 mg/kg intraperitoneally,0
same,Acidity free ds the secretion,"[2]; 8 mg/kg intraperitoneally, ns",388 mEq/l
same,Acidity total ds the secretion,"[2]; 8 mg/kg intraperitoneally, ns",459 mEq/l
same,Pepsin ds the secretion,[2]; [4],2.66 mg
same,Acidity free ds the secretion,[2]; [5],275 mEq/l
same,Acidity total ds the secretion,[2]; [5],335 mEq/l
same,Pepsin ds the secretion,[2]; [5],1.83 mg
same,Acidity free ds the secretion,[2]; [6],145 mEq/l
same,Acidity total ds the secretion,[2]; [6],189 mEq/l
same,Pepsin ds the secretion,[2]; [6],1.14 mg
same,LD50,"[3]; po, orally in the rat, read-out: lethal dose LD50",915 mg/kg
same,selectivity ratio,"[3]; LD50 / PD50, oral, rat, read-out: ratio of toxicity/activity or therapeutic index",~23
